Laboratory results published in paper PMC8322648, “Brevibacillin 2V Exerts Its Bactericidal Activity via Binding to Lipid II and Permeabilizing Cellular Membranes” (Frontiers in Microbiology, 2021).
No end group written: not given here.

Key:
[1] = ref Zhao et al., 2021; cited from earlier work
[2] = system: human red blood cells; settings: Figure 1, ref Zhao et al., 2021; cited from earlier work
Description: (§1) A vast number of bacterial non-ribosomally produced peptides (NRPs) have shown strong antimicrobial activity against pathogenic bacteria ([Cochrane et al., 2014]; [Cociancich et al., 2015]; [Hamamoto et al., 2015]; [Ling et al., 2015]; [Süssmuth and Mainz, 2017]). Lipo-tridecapeptides, a class of NRPs, show strong antimicrobial activity against Gram-positive pathogens, including antibiotic-resistant Staphylococcus aureus and Enterococcus spp. ([Barsby et al., 2001], [2006]; [Yang et al., 2016]; [Wu et al., 2019]; [Zhao et al., 2021]). However, many of these lipo-tridecapeptides have shown high ... || Figure 1 Structures of brevibacillins. The red color indicates the more hydrophobic amino acid residues of brevibacillin V, brevibacillin and brevibacillin I relative to brevibacillin 2V. MIC, the minimum inhibitory concentration against Staphylococcus aureus (MRSA). HC50, the 50% human blood cell hemolysis concentration. CC50, the 50% cell (HepG2) toxicity concentration.

[3] = system: HepG2; settings: Figure 1, ref Zhao et al., 2021; cited from earlier work
Description: as §1

[4] = system: Staphylococcus aureus (MRSA); settings: Staphylococcus aureus (MRSA); Figure 1; ref Zhao et al., 2021; cited from earlier work
Description: Figure 1 Structures of brevibacillins. The red color indicates the more hydrophobic amino acid residues of brevibacillin V, brevibacillin and brevibacillin I relative to brevibacillin 2V. MIC, the minimum inhibitory concentration against Staphylococcus aureus (MRSA). HC50, the 50% human blood cell hemolysis concentration. CC50, the 50% cell (HepG2) toxicity concentration. […] LUVs-based CF leakage assay is widely used in the studies of the antibiotic mode of action ([Hasper et al., 2004]; [Smith et al., 2008]; [Slootweg et al., 2015]; [Bakhtiary et al., 2017]). Disruption of the vesicle membrane by certain compounds releases CF from the LUVs into the extra-vesicular milieu resulting in increased fluorescence signal (Figure ...

[5] = system: S. aureus ATCC15975 (MRSA); experiment: Time-killing assay; format: cell-based, Staphylococcus aureus; settings: MHB, 37°C; for time to complete killing of all cells: 10 × MIC (nisin 40 μg/ml; brevibacillins 20 μg/ml), ≈ 5 × 10^6 cells per ml, 220 rpm, triplicate
Protocol: This assay was performed according to a previously described procedure ([Ling et al., 2015]; [Zhao et al., 2020b]). An overnight culture of cells [S. aureus ATCC15975 (MRSA)] was diluted 50-fold in MHB and incubated at 37°C with aeration at 220 rpm. Bacteria were grown to an OD600 of 0.5, and then, the concentration of cells was adjusted to ≈ 5 × 10^6 cells per ml. Bacteria were then challenged with nisin (40 μg/ml), brevibacillin (20 μg/ml), brevibacillin V (20 μg/ml), brevibacillin I (20 μg/ml), or brevibacillin 2V (20 μg/ml) in culture tubes at 37°C and 220 rpm (peptides at 10 × MIC, a desirable concentration at the site of infection). Bacteria not treated with peptides were used as negative controls. At desired time points, 200 μl aliquots were taken, centrifuged at 8,000 g for 2 min, and resuspended in 200 μl of MHB. 10-fold serially diluted samples were plated on MHA plates. After incubated at 37°C overnight, colonies were counted and c.f.u. per ml was calculated. Each experiment was performed in triplicate.

[6] = system: S. aureus ATCC15975 (MRSA) membrane; experiment: DiSC3(5) membrane potential assay; format: cell-based, Staphylococcus aureus; settings: 2 × MIC
Protocol: Staphylococcus aureus ATCC15975 (MRSA) was grown to an OD600 of 0.8. The culture was pelleted at 5,000 × g for 5 min and washed three times in 10 mm HEPES with 10 mm glucose (pH 7.2). The cell density was normalized to an OD600 of 0.2, loaded with 2 μm DiSC3(5) dye, and incubated for 20 min in the dark for probe fluorescence to stabilize. After incubation, KCl was added to the cell suspension at a final concentration of 100 mm. Subsequently, the cell suspension was added to a 96-well microplate and incubation for 5 min; after that, antibiotics were added at a final concentration of 2 × MIC. Fluorescence was monitored for 25 min, with the antibiotics added after ~20 s. The excitation and emission wavelengths on the fluorescence spectrometer were adjusted to 622 nm and 670 nm, respectively. Representative examples from three technical replicates are shown.

[7] = ref Varney et al., 2013; Bakhtiary et al., 2017; cited from earlier work
Protocol: To investigate the role of Lipid II-binding ability of brevibacillins in their membrane disruption capacity, CF leakage assays were performed using LUVs composed of DOPC with or without Lipid II and containing CF at self-quenching concentrations. LUVs-based CF leakage assay is widely used in the studies of the antibiotic mode of action ([Hasper et al., 2004]; [Smith et al., 2008]; [Slootweg et al., 2015]; [Bakhtiary et al., 2017]). Disruption of the vesicle membrane by certain compounds releases CF from the LUVs into the extra-vesicular milieu resulting in increased fluorescence signal (Figure ...

[8] = system: S. aureus ATCC15975 (MRSA); experiment: Spot-on-lawn assay with Lipid II; format: cell-based, Staphylococcus aureus; settings: brevibacillins 0.68 μg, nisin and daptomycin 1.36 μg; Lipid II 300 μM, 4 μl, at edge of halo; MHA, 37°C overnight
Protocol: An overnight cultured S. aureus ATCC15975 (MRSA) was added to 0.6% MHA (w/v, temperature 42°C) at a final concentration of 0.1% (v/v), and then, the mixture was poured to the plates 10 ml for each. The binding of peptide and Lipid II ([Hasper et al., 2006]) was further evaluated by spotting of purified Lipid II (300 μm, 4 μl) to the edge of inhibition halo of antibiotics (brevibacillins, 0.68 μg; nisin and daptomycin, 1.36 μg). Briefly, antibiotics were loaded to the agar plate. After the antibiotic solution drops had dried, purified Lipid II was spotted to the edge (identified by a pre-experiment) of inhibition halo of antibiotics ([Wang et al., 2020]). After the Lipid II solution drops had dried, the plates were transferred to a 37°C incubator for overnight incubation.

[9] = membrane-embedded Lipid II; ref Islam et al., 2012; ‘t Hart et al., 2016; Bakhtiary et al., 2017; Chiorean et al., 2020; cited from earlier work
Protocol: After confirmation of the fact that brevibacillins bind to Lipid II, an ITC assay was performed to determine the binding affinity of brevibacillins for Lipid II. For this, 2 mol % Lipid II was incorporated into DOPC-based LUVs. […] Nisin, teixobactin, nukacin ISK-1, and lacticin 3147 ...

[10] = system: S. aureus ATCC15975 (MRSA); experiment: Fluorescence microscopy, LIVE/DEAD BacLight (SYTO 9/propidium iodide); format: cell-based, Staphylococcus aureus; settings: 2 × MIC (brevibacillins 4 μg/ml, nisin 8 μg/ml), 15 min, room temperature
Protocol: (§2) Staphylococcus aureus ATCC15975 (MRSA) was grown to an OD600 of 0.8. The culture was pelleted at 5,000 × g for 5 min and washed three times in 10 mm HEPES with 10 mm glucose (pH 7.2). After normalization of the cell density to an OD600 of 0.2 in 10 mm HEPES with 10 mm glucose (pH 7.2), a 2-fold MIC concentration of brevibacillins (4 μg/ml) or nisin (8 μg/ml) was added. At the same time, SYTO® 9 and propidium iodide (LIVE/DEAD Baclight Bacterial Viability Kit, Invitrogen) were added to the above cell suspensions. After incubation at room temperature for 15 min, peptides were removed and washed three times with 10 mm HEPES with 10 mm glucose (pH 7.2). Then, the cell suspensions were loaded on 1.5% agarose pads and analyzed by DeltaVision Elite microscope (Applied Precision; [Zhao and Kuipers, 2021]).

[11] = Pyrene-labeled Lipid II fluorescence quenching assay; format: binding; settings: 50 μM DOPC LUVs with 0.5 mol % pyrene-labeled Lipid II, 20°C, ex 350 nm
Protocol: The effects of antibiotics on pyrene-labeled Lipid II were measured using 50 μm DOPC-based large unilamellar vesicles (LUVs) containing 0.5 mol % pyrene-labeled Lipid II ([Breukink et al., 2003]). Briefly, the LUVs were added to a quartz cuvette and titrated with nisin, brevibacillin, or brevibacillin 2V with stirring at 20°C. The fluorescence spectra were recorded between 360 and 600 nm (λex350 nm) using a Cary Eclipse Fluorescence Spectrophotometer (Agilent, United States).

[12] = system: S. aureus (MRSA); experiment: Membrane permeability assay, concentration series (fluorescence microscopy); format: cell-based, Staphylococcus aureus; settings: 100 nM and 400 nM, 15 min; ratio of membrane permeabilized cells; three independent experiments; p < 0.05
Protocol: as §2
GraphPad Prism 7.0 was used to fit the data of time-killing assay, DiSC3(5) assay, fluorescence quenching assay, ITC assay, and CF Leakage assay in Figures 3–7. The fluorescence images (ratio of membrane permeabilized cells) were quantified by the software Adobe Photoshop 2021. The Kd values of brevibacillins to Lipid II were calculated using the Nano Analyze Software (Waters LLC). The statistical significance of the data was assessed using Duncan’s multiple range test with the software SPSS Statistics 26; values of p < 0.05 were considered to be statistically significant.
Figure 7 Brevibacillins disrupt membrane permeability without the need for Lipid II binding. (A), Cartoon schematic of the assay used to assess membrane permeability disruption of brevibacillins. (B), CF releases (%) vs. time graph showing the effects of adding brevibacillins to DOPC-LUVs with 0.1% Lipid II; peptide concentrations were 100 nm; a, when peptides were added; and b, when 20% Triton X-100 added. (C), CF releases (%) vs. time graph showing the effects of adding brevibacillins to LUVs of pure DOPC; peptide concentrations were 100 nm; a, when peptides were added; and b, when 20% Triton X-100 was added. (D), fluorescence microscopic images of S. aureus (MRSA) after have been treated by a series concentrations of brevibacillins and nisin for 15 min. (E), the ratio of membrane permeabilized cells that was quantified by Adobe Photoshop 2021; the data are representative of three independent experiments.
To investigate the in vivo membrane disruption capacity of brevibacillin and brevibacillin 2V, a membrane permeability assay was performed with a series of concentrations of antibiotics. Nisin was used as a control.

[13] = 31P solid-state NMR of Lipid II in liposomes; format: binding; settings: DOPC vesicles with 2 mol % Lys-Lipid II, 20 mM HEPES, 100 mM NaCl, pH 8; 200 nmol antibiotic, 100 nmol Lipid II; 500 MHz, 10 kHz MAS, 270 K
Protocol: Multi-lamellar vesicles of DOPC doped with 2 mol % Lys-Lipid II in buffer (20 mm HEPES, 100 mm NaCl, and pH = 8) were collected by centrifugation (60,000 × g) and loaded into 3.2 mm ssNMR rotors. For 3.2 mm rotors, we used 200 nmol of antibiotic with 100 nmol of Lipid II. The 1D ^31P ssNMR experiments were performed at 500 MHz (^1H frequency) magnetic field using 10 kHz magic angle spinning (MAS) at 270 K sample temperature.

**Q.** Which “rank order of calculated hydrophobicity” value [1] does the source give for Brevibacillin V here?
**A.** brevibacillin I > brevibacillin > brevibacillin V > brevibacillin 2V

**Q.** What about the “HC50, 50% human blood cell hemolysis concentration” value [2] of the same substance?
**A.** 73.1 ± 1.4 mg/L

**Q.** What about the “CC50, 50% cell (HepG2) toxicity concentration” value [3] of the same substance?
**A.** 9.89 ± 0.67 mg/L

**Q.** And the MIC [4]?
**A.** 2 mg/L

**Q.** What about the “killing kinetics / capacity, in words” value ([5]; 10 × MIC (brevibacillins 20 μg/ml; nisin 40 μg/ml)) of the same substance?
**A.** intermediate killing capacity

**Q.** And the “time to complete killing of all cells” value [5]?
**A.** ≤ 2 h

**Q.** And the “speed of membrane permeabilization” value [6]?
**A.** appeared to act faster than brevibacillin 2V and the well-known pore-forming antibiotic nisin

**Q.** And the “rank order of membrane disruption capacity” value ([6]; correlates with calculated hydrophobicity)?
**A.** brevibacillin I > brevibacillin > brevibacillin V > brevibacillin 2V

**Q.** For HNP-1: Lipid II-targeting antimicrobial, which “membrane disruption in Lipid II containing and Lipid II lacking LUVs” value [7] is on record?
**A.** cause membrane disruption in both Lipid II containing LUVs and Lipid II lacking LUVs

**Q.** Which “antimicrobial activity upon addition of purified Lipid II” value [8] does the source give for daptomycin here?
**A.** kept its antimicrobial activity against S. aureus (MRSA)

**Q.** Which Kd [9] does the source give for lacticin 3147 here?
**A.** 0.92 µM

**Q.** What about the “membrane disruption in Lipid II containing and Lipid II lacking LUVs” value [7] of the same substance?
**A.** cause membrane disruption in both Lipid II containing LUVs and Lipid II lacking LUVs

**Q.** Which results are given for “nisin: well-known Lipid II-targeting antibiotic, pore-forming, used as control (ITSISLCTPGCKTGALMGCNMKTATCHCSIHVSK; not fully specified (some residues, bridges); cysteine pairing not given here; UniProt P13068 24-57, looked up) [reference compound]”?
**A.** membrane integrity (SYTO 9 / propidium iodide staining) [10]: turned red, indicative of a compromised membrane; excimer fluorescence (about 490 nm) [11]: appearance of a fluorescence peak around 490 nm, indicating the formation of excimers; pyrene monomer fluorescence [11]: clearly induced a decrease of pyrene monomer fluorescence; antimicrobial activity upon addition of purified Lipid II [8]: diminished; membrane permeabilization capacity, comparison [12]: significantly (p < 0.05) higher membrane permeabilization capacity than the brevibacillins; time to complete killing of all cells [5]: ≤ 4 h; Kd [9]: 0.0146 µM

**Q.** For vancomycin [reference compound], which “31P signals of Lipid II pyrophosphate moiety” value [13] is on record?
**A.** no changes observed for the Lipid II pyrophosphate signals
